In patent US20250114462A1, “HYDROPHILIC FUNCTIONALIZED PARTICLES IN THE DELIVERY OF HYDROPHOBIC DRUGS” (NEW JERSEY INSTITUTE OF TECHNOLOGY, priority 2023, published 2025):

Assay: In vitro dissolution profile (USP-42 paddle method)
Type: physicochemical
Conditions: for 50% dissolution time (T50): composites with 0.5 to 1.0% of HFP
Experimental: Dissolution measurements were carried out using USP-42 paddle method with Symphony 7100 Distek dissolution instrument. Agilent 8453 model UV-Visible spectrophotometer was used at a wavelength at 295.0 nm for the reference drug Griseofulvin standard absorbance measurements that calibrated to measure the formulation polymer incorporated drugs concentration and dissolution percentage estimation.

SMILES	Initial dissolution rate	50% dissolution time (T50)
COc1ccc(-n2nc(C(N)=O)c3c2C(=O)N(c2ccc(N4CCCCC4=O)cc2)CC3)cc1 [Apixaban (APX), apixaban]	74.3 µg/min	
COC1=CC(=O)C[C@@H](C)[C@]12Oc1c(Cl)c(OC)cc(OC)c1C2=O [Griseofulvin (GF), griseofulvin]	110.3 µg/min	40
CC(=O)O[C@]1(C(C)=O)CC[C@H]2[C@@H]3C=C(C)C4=CC(=O)CC[C@]4(C)[C@H]3CC[C@@]21C [Megestrol Acetate (MA), megestrol acetate]	84.1 µg/min	138
